Assay results taken from article PMC9781916, “Antipsychotic- and Anxiolytic-like Properties of a Multimodal Compound JJGW08 in Rodents” (International Journal of Molecular Sciences, 2022).

Legend:
[1] = target: T1, human serotonin 5-HT2A receptor (Homo sapiens, UniProt P28223); assay type: cell-based
T1 construct: host or cells: CHO-K1
Experimental: (§1) Tested and reference compounds were dissolved in dimethyl sulfoxide (DMSO) at a concentration of 10 mM. Serial dilutions were prepared in a 96-well microplate in assay buffer, and 8 to 10 concentrations were tested. […] The assay was executed according to the previously described protocol [45]. After thawing, cells were transferred to assay buffer (DMEM/HAM’s F12 with 0.1% protease-free BSA) and centrifuged. The cell pellet was resuspended in assay buffer, and coelenterazine h was added at final concentrations of 5 µM. The cell suspension was incubated at 16 °C (or 21 °C), protected from light with constant agitation for 16 h (or 4 h), and then diluted with assay buffer to the concentration of 100,000 cells/mL (or 250,000 cells/mL). After 1 h of incubation, 50 µL of the cell’s suspension was dispensed using automatic injectors built into the radiometric and luminescence plate counter MicroBeta2 LumiJET (PerkinElmer, Waltham, NA, USA) into white opaque 96-well microplates preloaded with test compounds. Immediate light emission generated following calcium mobilization was recorded for 30 s. In antagonist mode, after 25–30 min of incubation, the reference agonist was added to the above assay mix, and light emission was re-recorded. […] IC50 and EC50 values were calculated.

5-HT2A receptors = tested on: 5-HT2A receptors; design: method as in doi:10.1016/j.molstruc.2022.134585; conditions: cited from earlier work
[2] = target: human serotonin 5-HT7 receptor (Homo sapiens, UniProt P34969); experiment: Functional assay (cAMP, TR-FRET) in CHO-K1 cells, 5-HT7 receptor
Experimental: Test and reference compounds were dissolved in DMSO at a concentration of 1 mM. Serial dilutions were prepared in a 96-well microplate in assay buffer, and 8 to 10 concentrations were tested. […] A functional assay based on cells expressing the human 5-HT7 receptor was performed according to the previously described protocol [16, 45]. CHO-K1 cells were transfected with a beta-lactamase (bla) reporter gene under the control of the cyclic AMP response element (CRE) (Life Technologies, Carlsbad, CA, USA).

5-HT1A receptors = tested on: 5-HT1A receptors; design: method as in doi:10.1016/j.molstruc.2022.134585; conditions: cited from earlier work
5-HT7 receptors = tested on: 5-HT7 receptors; design: method as in doi:10.1016/j.molstruc.2022.134585; conditions: cited from earlier work
mice [3] = experiment: Four-plate test in mice; assay type: in vivo
Experimental: Figure 2 The effect of JJGW08 on the number of punished crossings in the four-plate test. Mice were placed in the apparatus, and after a 15 s adaptation period, each mouse crossing from one plate to another was punished with an electric shock. JJGW08 was administered intraperitoneally (ip) 30 min before the test. The control group received 0.9% NaCl solution (ip). Values are expressed as means ± SD, n = 8–10 mice per group. Statistical analysis: one-way ANOVA (Newman–Keuls post hoc), ** p < 0.01.
The four-plate test was performed on mice according to the previously described method. Mice were placed individually in the four-plate apparatus (Panlab, Barcelona, Spain). After a 15 s habituation period, each mouse that crossed from one plate to another (two limbs on one plate, two on another) was punished by an electric shock (0.8 mA, 0.5 s). The number of punished crossings was calculated during the 60 s of the test.

mice [4] = experiment: Catalepsy bar test in mice; assay type: in vivo
Experimental: Catalepsy was assessed using the bar method described by Ueki et al. with minor modifications [48, 49]. The front paws of the mice were placed on a cylindrical metal bar located 4 cm above the tabletop’s surface, while the hind paws remained on the tabletop. The time in which the animal held both paws on the bar was measured at 30, 60, and 120 min after the administration of the tested compound, with a maximum measurement time of 60 s. Each of the measurements consisted of placing the animal’s paws on the bar three times unless the mouse was on it for 60 s; then, no further trial was performed.
The minimum cataleptogenic dose was defined as the lowest dose inducing a mean catalepsy score of ≥1 at 30, 60, or 120 min post-treatment. The tested compound was administered ip at the dose range of 5–20 mg/kg.

[5] = target: T2, human serotonin 5-HT1A receptor (Homo sapiens, UniProt P08908); experiment: Functional assay (aequorin, calcium mobilization) in CHO-K1 cells, 5-HT1A receptor; assay type: cell-based
T2 construct: host or cells: CHO-K1
T2 sequence (P08908 1-422): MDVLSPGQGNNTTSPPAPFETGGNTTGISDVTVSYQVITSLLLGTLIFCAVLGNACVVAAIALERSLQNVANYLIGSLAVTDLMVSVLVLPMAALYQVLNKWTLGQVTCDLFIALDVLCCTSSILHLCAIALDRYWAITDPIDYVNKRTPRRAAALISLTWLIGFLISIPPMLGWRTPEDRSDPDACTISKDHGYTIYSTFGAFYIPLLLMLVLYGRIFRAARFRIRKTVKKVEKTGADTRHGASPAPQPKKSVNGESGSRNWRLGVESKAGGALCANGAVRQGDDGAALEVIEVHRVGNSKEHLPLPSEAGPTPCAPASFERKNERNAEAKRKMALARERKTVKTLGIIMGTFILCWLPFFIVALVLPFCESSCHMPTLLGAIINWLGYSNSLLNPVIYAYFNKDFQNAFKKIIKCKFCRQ
Experimental: as §1

[6] = 5-HT7, antagonist mode, 10 nM serotonin as reference agonist
[7] = antagonist mode, 100 nM serotonin as reference agonist

Sequence of human serotonin 5-HT7 receptor (P34969 whole entry): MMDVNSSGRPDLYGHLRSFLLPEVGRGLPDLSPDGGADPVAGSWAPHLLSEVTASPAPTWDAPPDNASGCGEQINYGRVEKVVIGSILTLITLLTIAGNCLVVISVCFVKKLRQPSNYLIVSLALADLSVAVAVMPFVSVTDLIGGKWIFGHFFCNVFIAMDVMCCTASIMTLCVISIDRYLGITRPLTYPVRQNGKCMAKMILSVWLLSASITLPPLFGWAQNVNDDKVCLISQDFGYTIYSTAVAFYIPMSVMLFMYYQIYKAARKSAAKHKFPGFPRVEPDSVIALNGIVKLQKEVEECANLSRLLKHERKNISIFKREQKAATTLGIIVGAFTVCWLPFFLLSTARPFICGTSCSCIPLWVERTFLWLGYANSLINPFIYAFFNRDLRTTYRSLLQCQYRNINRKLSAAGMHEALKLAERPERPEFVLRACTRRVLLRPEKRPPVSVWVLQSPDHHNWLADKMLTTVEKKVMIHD
T1 sequence (P28223 whole entry): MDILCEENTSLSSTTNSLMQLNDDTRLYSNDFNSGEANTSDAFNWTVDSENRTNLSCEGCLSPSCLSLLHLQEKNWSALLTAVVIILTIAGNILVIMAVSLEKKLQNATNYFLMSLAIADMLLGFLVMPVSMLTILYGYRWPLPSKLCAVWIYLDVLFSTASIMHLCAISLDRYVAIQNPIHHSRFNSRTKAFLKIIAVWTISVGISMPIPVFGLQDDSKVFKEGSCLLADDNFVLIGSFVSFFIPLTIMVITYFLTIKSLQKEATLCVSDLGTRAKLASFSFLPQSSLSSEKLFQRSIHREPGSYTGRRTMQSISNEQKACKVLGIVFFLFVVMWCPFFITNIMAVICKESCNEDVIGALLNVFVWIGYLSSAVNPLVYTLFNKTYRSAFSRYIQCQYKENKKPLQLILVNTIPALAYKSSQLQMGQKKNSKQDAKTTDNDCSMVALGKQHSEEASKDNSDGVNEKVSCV

COc1ccccc1N1CCN(CCCCCOc2ccccc2C(N)=O)CC1.Cl [JJGW08, 2-{5-[4-(2-metoksyfenylo)piperazin-1-ylo]pentoxy}benzamide hydrochloride]
Agonist Mode Emax% [1]: 21%
Agonist Mode pEC50 ± Range [1]: 5.9 ± 0.1
Antagonist Mode Emax% [1]: 5%
Antagonist Mode pIC50 ± Range [1]: 5.7 ± 0.4
antagonistic properties (in words) [1]: very weak antagonistic properties
Kb ([1]; read-out: Antagonist Mode Kb): 290 nM
affinity (in words) (5-HT2A receptors): moderate affinity
Agonist Mode Emax% ([2]; 5-HT7, agonist mode): 1%
Antagonist Mode Emax% [2, 6]: 4%
Antagonist Mode pIC50 ± Range [2, 6]: 6.4 ± 0.1
antagonistic properties (in words) ([2]; 5-HT7 functional assay): very weak antagonistic properties
Kb ([2]; read-out: Antagonist Mode Kb, 5-HT7, antagonist mode, Cheng equation): 190 nM
affinity (in words) (5-HT1A receptors): high affinity
affinity (in words) (5-HT7 receptors): moderate affinity
increase in the number of punished crossings (mice [3]; 0.3 mg/kg ip): 54%
increase in the number of punished crossings (mice [3]; 0.625 mg/kg ip): 49%
Mean Score (catalepsy) (mice [4]; 5 mg/kg ip, 30 min): 0.0
Mean Score (catalepsy) (mice [4]; 5 mg/kg ip, 60 min): 0.2
Mean Score (catalepsy) (mice [4]; 5 mg/kg ip, 120 min): 0.2
Mean Score (catalepsy) (mice [4]; 10 mg/kg ip, 30 min): 0.7
Mean Score (catalepsy) (mice [4]; 10 mg/kg ip, 60 min): 0.9
Mean Score (catalepsy) (mice [4]; 10 mg/kg ip, 120 min): 1.4
cataleptogenic dose relative to the lowest antipsychotic-like dose (mice [4]; 10 mg/kg vs. 0.15 mg/kg): 67 fold
Mean Score (catalepsy) (mice [4]; 20 mg/kg ip, 30 min): 2.1
Mean Score (catalepsy) (mice [4]; 20 mg/kg ip, 60 min): 2.1
Mean Score (catalepsy) (mice [4]; 20 mg/kg ip, 120 min): 1.5
minimum (lowest) cataleptogenic dose (mice [4]; ip, lowest dose with mean catalepsy score ≥1 at 30, 60 or 120 min): 10 mg/kg
Agonist Mode Emax% ([5]; agonist mode): 9%
Antagonist Mode Emax% [5, 7]: 1%
Antagonist Mode pIC50 ± Range [5, 7]: 8.3 ± 0.1
